{
  "source": "patent US20210235704A9",
  "about": "“Combinations of Lipo-Chitooligosaccharides and Methods for Use in Enhancing Plant Growth” (NOVOZYMES BIOAG A/S, priority 2011, published 2021)",
  "test_system": "Florida petite cherry tomato plants",
  "assay": "LCO foliar application on cherry tomato (greenhouse)",
  "type": "in vivo",
  "details": "at the end of harvest, compared to control treatment; FIG. 11",
  "procedure": "Based on the findings from the soybean LCO and the alfalfa LCO combination in Siratro (example 1), further investigation was conducted on tomato. Florida petite cherry tomato plants were grown from seeds in greenhouse plastic containers and sprayed with soy LCO or its combination with alfalfa LCO during the initiation of flower buds at 5 ml/plant application rate. A second spry was also applied one week after the first application. At different maturity, leaf greenness, flower number, fruit number and final fruit fresh weight were measured.",
  "data": [
    {"substance": "LCO-V(C18:1, MeFuc), MOR116 [soy LCO]", "values": [
      {"measurement": "average fruit number per plant", "result": "significantly higher"}
    ]}
  ]
}
